# Patent publication US20250270246A1, “LINCOSAMIDES AND USES THEREOF” (President and Fellows of Harvard College, priority 2022, published 2025)
# Counter-ions that a name gives are not always drawn. Like-named read-outs stand apart in the source and are kept apart here.
# Assays:
# Assay in all cases: MIC by broth microdilution (CLSI)
# Format in all cases: cell-based
# E. coli HAV#038, ΔTolC = conditions: Escherichia coli, 24 h, read-out: MIC E. coli HAV#038, ΔTolC
# How it was run: (§1)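 Testing follows CLSI broth microdilution; P. aeruginosa is run in Chelex 100-pretreated cation-adjusted broth, other organisms in untreated cation-adjusted Mueller-Hinton broth. Final inoculum is 5×10^5 CFU/mL and the top concentration is 64 μg/mL. MICs reflect inhibition of visible growth at 24 h.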
# [1] = system: S. pyogenes HAV#033, c-ermB; conditions: Streptococcus pyogenes, read-out: MIC S. pyogenes HAV#033, c-ermB
# How it was run: as §1
# [2] = system: S. aureus ATCC 29213 (HAV#001); conditions: Staphylococcus aureus, ATCC29213, 24 h, read-out: MIC S. aureus ATCC 29213
# How it was run: as §1
# [3] = system: A. baumannii ATCC 19606 (HAV#010); conditions: Acinetobacter baumannii, ATCC19606, 24 h, read-out: MIC A. baumannii ATCC 19606
# How it was run: as §1
# [4] = system: E. faecalis ATCC 29212 (HAV#005); conditions: Enterococcus faecalis, ATCC29212, 24 h, read-out: MIC E. faecalis ATCC 29212
# How it was run: as §1
# [5] = system: S. aureus HAV#031, c-ermA; conditions: Staphylococcus aureus, read-out: MIC S. aureus HAV#031, c-ermA
# How it was run: as §1
# [6] = system: K. pneumoniae HAV#402, FQ-R; conditions: Klebsiella pneumoniae, read-out: MIC K. pneumoniae HAV#402, FQ-R
# How it was run: as §1
# [7] = system: E. coli ATCC 25922 (HAV#006); conditions: Escherichia coli, ATCC25922, 24 h, read-out: MIC E. coli ATCC 25922
# How it was run: as §1
# [8] = system: K. oxytoca HAV#450; Clinical; conditions: Klebsiella oxytoca, read-out: MIC K. oxytoca HAV#450
# How it was run: as §1
# E. coli HAV#040, LptD = conditions: Escherichia coli, 24 h, read-out: MIC E. coli HAV#040, LptD
# How it was run: as §1
# [9] = system: E. faecium HAV#318, VRE; clinical; conditions: Enterococcus faecium, read-out: MIC E. faecium HAV#318, VRE
# How it was run: as §1
# S. aureus HAV#216, cfr = conditions: Staphylococcus aureus, read-out: MIC S. aureus HAV#216, cfr
# How it was run: as §1
# E. coli ΔtolC = conditions: Escherichia coli, 24 h, read-out: MIC E. coli ΔtolC, ΔtolC; CaMHB, 24 h incubation
# How it was run: as §1
# K. pneumoniae JMI-991193 = conditions: Klebsiella pneumoniae, JMI991193, 24 h, JMI-991193; CaMHB, 24 h incubation; read-out: MIC K. pneumoniae JMI-991193
# How it was run: as §1
# S. aureus Clinical (cfr) = conditions: Staphylococcus aureus, 24 h, Clinical (cfr); CaMHB, 24 h incubation; read-out: MIC S. aureus Clinical (cfr)
# How it was run: as §1
# E. faecium JMI-990536 = conditions: Enterococcus faecium, JMI990536, 24 h, JMI-990536; CaMHB, 24 h incubation; read-out: MIC E. faecium JMI-990536
# How it was run: as §1
# S. aureus MMX 3035 = conditions: Staphylococcus aureus, MMX3035, 24 h, MMX 3035; CaMHB, 24 h incubation; read-out: MIC S. aureus MMX 3035
# How it was run: as §1
# S. pneumoniae c-ermB = conditions: Streptococcus pneumoniae, 24 h, read-out: MIC S. pneumoniae c-ermB
# How it was run: as §1
# E. coli lptD mutant = conditions: Escherichia coli, 24 h, read-out: MIC E. coli lptD mutant, lptD mutant / ΔlptD mutant; CaMHB, 24 h incubation
# How it was run: as §1
# [10] = HAV#001, ATCC 29213, CaMHB, 24 h incubation
# [11] = HAV#010, ATCC 19606, CaMHB, 24 h incubation
# [12] = HAV#005, ATCC 29212, CaMHB, 24 h incubation
# [13] = HAV#006, ATCC 25922, CaMHB, 24 h incubation
Structure (SMILES),"MIC (E. coli HAV#038, ΔTolC) [µg/mL]",MIC ([1]; 24 h) [µg/mL],MIC [2] [µg/mL],MIC [3] [µg/mL],MIC [4] [µg/mL],MIC ([5]; 24 h) [µg/mL],MIC ([6]; 24 h) [µg/mL],MIC [7] [µg/mL],MIC ([8]; 24 h) [µg/mL],"MIC (E. coli HAV#040, LptD) [µg/mL]","MIC [2, 10] [µg/mL]","MIC [3, 11] [µg/mL]","MIC [4, 12] [µg/mL]","MIC [7, 13] [µg/mL]",MIC ([9]; 24 h) [µg/mL],"MIC (S. aureus HAV#216, cfr; 24 h) [µg/mL]",other results
"CC(C)C[C@@H]1CCO[C@@H]2[C@H](CN[C@@H]2C(=O)N[C@@H]2C/C=C\CCS[C@H]3O[C@H]2[C@H](O)[C@H](O)[C@H]3O)C1 [FSA1507013, (4S,5aS,8S,8aR)-4-isobutyl-8-(((1R,8R,9R,10R,11S,12R,Z)-10,11,12-trihydroxy-13-oxa-2-thiabicyclo[7.3.1]tridec-5-en-8-yl)carbamoyl) octahydro-2H-oxepino[2,3-c]pyrrol-7-ium formate]",0.125,0.5,0.125,2,0.125,4,8,2,2,0.5,,,,,,,
"CC(C)C[C@@H]1CCO[C@@H]2[C@H](CN[C@@H]2C(=O)N[C@H]2C3OC(SCC/C=C/[C@@H]2C)C(O)C(O)C3O)C1 (single isomer, unassigned) [FSA1507068, formate salt]",0.5,,,,,,,,,0.5,≤ 0.06,4,0.125,4,,,"MIC ([1]; c-ermB, CaMHB, 24 h incubation): 0.25 µg/mL; MIC ([5]; c-ermA, CaMHB, 24 h incubation): 0.5 µg/mL; MIC ([6]; FQ-R, CaMHB, 24 h incubation): 8 µg/mL; MIC ([9]; CaMHB, 24 h incubation): 0.5 µg/mL; MIC ([8]; CaMHB, 24 h incubation): 8 µg/mL; MIC (S. aureus HAV#216, cfr; cfr, CaMHB, 24 h incubation): 2 µg/mL"
"CC(C)C[C@@H]1CCO[C@@H]2[C@@H](C1)CN(C)[C@@H]2C(=O)N[C@H]1C2OC(SCC/C=C\[C@H]1C)C(O)C(O)C2O (single isomer, unassigned) [FSA1508001, formate]",0.25,0.25,0.25,2,0.125,0.5,64,8,16,0.25,,,,,0.25,1,
"CC(C)C[C@@H]1CCO[C@@H]2[C@H](CN[C@@H]2C(=O)N[C@H]2C3OC(SCC/C=C\[C@H]2C)C(O)C(O)C3O)C1 (single isomer, unassigned) [FSA1507066, formate]",0.125,0.125,≤ 0.06,2,≤ 0.06,0.5,16,4,4,0.25,,,,,0.25,0.5,
"CC(C)C[C@@H]1CCO[C@@H]2[C@H](CN[C@@H]2C(=O)N[C@@H]2C/C=C\C[C@@H](CO)S[C@H]3O[C@H]2[C@H](O)[C@H](O)[C@H]3O)C1 [FSA1606034, (4S,5aS,8S,8aR)-4-isobutyl-N-((1R,3S,8R,9R,10R,11S,12R,Z)-10,11,12-trihydroxy-3-(hydroxymethyl)-13-oxa-2-thiabicyclo[7.3.1]tridec-5-en-8-yl) octahydro-2H-oxepino[2,3-c]pyrrole-8-carboxamide hydrochloride salt]",,,,,,,,,,,1,> 64,2,64,,,MIC (E. coli ΔtolC): 2 µg/mL; MIC (K. pneumoniae JMI-991193): > 64 µg/mL; MIC (S. aureus Clinical (cfr)): > 64 µg/mL; MIC (E. faecium JMI-990536): > 64 µg/mL; MIC (S. aureus MMX 3035): 64 µg/mL; MIC (S. pneumoniae c-ermB): 16 µg/mL; MIC (E. coli lptD mutant): 8 µg/mL
"CC(C)C[C@@H]1CCO[C@@H]2[C@H](CN[C@@H]2C(=O)N[C@@H]2C/C=C\C[C@H](CO)S[C@H]3O[C@H]2[C@H](O)[C@H](O)[C@H]3O)C1 [FSA1606033, (4S,5aS,8S,8aR)-4-isobutyl-N-((1R,3R,8R,9R,10R,11S,12R,Z)-10,11,12-trihydroxy-3-(hydroxymethyl)-13-oxa-2-thiabicyclo[7.3.1]tridec-5-en-8-yl) octahydro-2H-oxepino[2,3-c]pyrrole-8-carboxamide hydrochloride salt]",,,,,,,,,,,1,64,1,16,,,MIC (E. coli ΔtolC): 1 µg/mL; MIC (K. pneumoniae JMI-991193): > 64 µg/mL; MIC (S. aureus Clinical (cfr)): 32 µg/mL; MIC (E. faecium JMI-990536): 16 µg/mL; MIC (S. aureus MMX 3035): 16 µg/mL; MIC (S. pneumoniae c-ermB): 4 µg/mL; MIC (E. coli lptD mutant): 4 µg/mL
"CC(C)C[C@@H]1CCO[C@@H]2[C@@H](C1)CN(C)[C@@H]2C(=O)N[C@@H]1C/C=C\CCS[C@H]2O[C@H]1[C@H](O)[C@H](O)[C@H]2O [FSA1508003, (4S,5aS,8S,8aR)-4-isobutyl-7-methyl-8-(((1R,8R,9R,10R,11S,12R,Z)-10,11,12-trihydroxy-13-oxa-2-thiabicyclo[7.3.1]tridec-5-en-8-yl)carbamoyl) octahydro-2H-oxepino[2,3-c]pyrrol-7-ium formate]",0.25,2,0.125,2,0.125,2,16,4,8,0.25,,,,,1,8,
